# Several values for one entry are separate records, joined by “and”; a condition that tells them apart may be missing. Equal entries are not always repeated. Where two headings read alike, the source gives them in different places.
# Legend:
# [1] = biological target: T1, PD-L1 (Homo sapiens, UniProt Q9NZQ7); assay: Saturation binding assay on live PC3 PD-L1 overexpressing cells
# T1 construct: expressed in transfected cells; host or cells: PC3 cells (human prostate carcinoma), stably transduced
# T1 sequence (Q9NZQ7 19-290): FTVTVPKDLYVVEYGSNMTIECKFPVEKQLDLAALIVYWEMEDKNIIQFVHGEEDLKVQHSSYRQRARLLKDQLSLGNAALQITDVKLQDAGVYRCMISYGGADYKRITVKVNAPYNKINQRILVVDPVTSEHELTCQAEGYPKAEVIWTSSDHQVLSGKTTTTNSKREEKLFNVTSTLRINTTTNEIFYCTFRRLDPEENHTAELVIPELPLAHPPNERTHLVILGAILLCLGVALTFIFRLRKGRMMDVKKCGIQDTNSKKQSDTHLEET
# Description: For assessing the binding affinity of compounds [^64Cu]Cu-1–6, PC3 cells transduced with PD-L1 were used. Dissociation constants in equilibrium (KD) and maximum number of binding sites (Bmax) were determined in a saturation binding assay. The assays were performed with the addition of 2.5% bovine serum albumin (BSA) in the medium to prevent unspecific binding to plastic wells, as reported previously for our first radioligands.[1]
# For saturation binding, cells were trypsinized (0.05% Trypsin–EDTA, Gibco, USA), counted, and diluted to ∼160,000 cells/mL. 0.25 mL of the cell solution was then added to each well of a 48-well plate (Falcon Multiwell #353078) and grown for at least 2 days.
# To determine the affinity (KD) and the number of binding sites (Bmax) of the herein described PD-L1 small-molecule ligands, saturation binding was performed in at least three independent experiments, as described before.[45] Cells were brought to room temperature followed by cooling on ice (each 15 min). The medium was removed and replaced with 200 μL assay buffer [PBS + 2.5% (w/v) BSA] for total binding (TB) conditions or assay buffer containing 300 μM BMS-1166 (in DMSO, resulting in 0.03% v/v) for the assessment NSB. After 15 min preincubation, 200 μL of each of the eight serial 1:1 dilutions (500 to 3.91 nM) of the respective radioligand was added (in triplicate). Cells were then incubated for 90 min at 4 °C, washed (3 × 1 min), and lysed in 500 μL of 0.1 M NaOH + 1% SDS. Radioactivity of the lysate was measured and decay corrected to a reference time (end of radiolabeling). An additional plate was subjected to the same conditions (preincubation, incubation, and washing) using PBS without BSA for each experiment, and the protein content of these lysates was determined by BCA assay. From CPM measurements, final values (pmol/mg protein) were calculated using the mean protein content and molar activity.
# Processed data were then subjected to nonlinear iterative curve fitting (GraphPad Prism 9) to yield Bmax (in pmol/mg protein) and KD (in nM).
# [2] = log D7.4 shake flask method, n-octanol/PBS; assay type: physicochemical; details: n-octanol/PBS pH 7.4, shake flask; mean ± SD, three experiments
# Description: For assessing the lipophilicity of the ^64Cu-labeled PD-L1 radioligands, distribution coefficients (log D7.4 values) were determined using the shake flask method between n-octanol and PBS buffer (pH 7.4).
# n-Octanol/water distribution coefficients were determined by the shake-flask method. The experiments for each radioligand was performed in triplicate. 30 μL of the reaction mixture was added to a 1.5 mL Eppendorf tube, which contained 570 μL of PBS (pH 7.4) and 600 μL n-octanol. After shaking at room temperature at 1500 rpm for 5 min, the mixture was centrifugated. An aliquot for each phase was carefully withdrawn, and the count rates were measured using a γ-counter (ISOMED2160 sodium iodide crystal detector). The mean values were calculated, corrected for the background activity, and the log D7.4 value was calculated with following formula [drawing 1]
# [3] = Kinetic stability in PBS buffer (pH 7.4), radio-HPLC; assay type: physicochemical; details: room temperature; for intact radioligand in PBS (pH 7.4): radio-HPLC at 1, 24 and 48 h
# Description: The kinetic stability of all ^64Cu-labeled ligands was investigated in PBS buffer solution (pH 7.4) by incubation at room temperature and monitoring with radio-HPLC up to 48 h. […] During the time course, no changes in peak number/shape and retention time were observed, proving the stability of the compounds. […] At the 48 h time point, however, a shoulder appears with a slightly higher retention time (∼7.0 min), indicating minor decomposition (>94% intact radiotracer).
# The corresponding radiotracer was labeled with approximately 500 MBq of ^64Cu in 50 μL of HEPES solution (adjusted to pH 4.5), as described above. After successful labeling, 450 μL of PBS solution (pH 7.4) was added, and the incubation was performed (room temperature) at 300 rpm. At each time point (1, 24, and 48 h), an aliquot was withdrawn and injected into the radio-HPLC (PerkinElmer, Massachusetts, United States system C or D, Supporting Information). Evaluation and graphical plotting were performed with OriginPro 9.0.
# [4] = Proteolytic stability in human serum, radio-HPLC; assay type: in vitro ADME; details: 37 °C
# Description: Potential degradation of the ^64Cu-labeled radiotracers by proteolysis was investigated by incubation in human serum at 37 °C for up to 48 h. At three different time points (1, 24, and 48 h), a sample was withdrawn, and serum proteins were precipitated. The radio-HPLC chromatograms of all ^64Cu-labeled radiotracers (Figure S111A–D, system D) show a major peak at ∼6.4–6.7 min indicating the radiotracers. After 1 h, the radiotracers [^64Cu]Cu-3–6 are 94.1, 98.3, 94.0, and 96.3% intact, respectively.
# Similar to PBS stability studies, the mixture containing the radiolabeled compound was diluted 1:10 with human serum. The solution was incubated at 37 °C with shaking at 300 rpm. At each time point (1, 24, and 48 h), an aliquot was withdrawn and added to a double amount of “supersol” (water containing 20% v/v EtOH, 5% v/v 5 mM aqueous EDTA, 0.5% v/v Triton X-100, 0.1% m/v saponin, 0.05% v/v 0.5 mM aqueous o-phenanthroline) to precipitate serum proteins. The suspension was cooled on ice for 5 min and then centrifugated for 5 min at 12,000g. A small amount of the supernatant was analyzed by radio-HPLC (PerkinElmer, Massachusetts, United States system D, Supporting Information). Evaluation and graphical plotting were performed with OriginPro 9.0.
# [5] = Metabolite analysis in vivo; parameters: species or system mouse; details: 4 h postinjection
# [6] = saturation binding, live PC3 PD-L1 overexpressing cells, 2.5% BSA, 90 min at 4 °C, mean ± SD, at least three experiments, read-out: KD
# [7] = saturation binding, live PC3 PD-L1 overexpressing cells, 2.5% BSA, mean ± SD
# [8] = supplementary CSV, read-out: KD [nM], saturation binding assay
Compound,"Kd [1, 6]","Bmax (maximum number of binding sites) [1, 7]",log D7.4 [2],intact radiotracer in PBS (pH 7.4) at 48 h ([3]; 48 h) [%],intact radioligand in PBS (pH 7.4) [3] [%],intact radiotracer in human serum after 1 h [4] [%],intact radiotracer in human serum at 48 h ([4]; 48 h) [%],stability in circulation (metabolite analysis) [5],"Kd [1, 8] [nM]"
Cc1c(COc2cc(OCc3cncc(S(C)(=O)=O)c3)c(CN[C@@H](CS(=O)(=O)O)C(=O)NCCP(=O)(O)O)cc2Cl)cccc1-c1cccc(OCc2cn(CCCN3CCN(C(=O)[C@H](CP(=O)(O)O)NC(=O)CC[C@H](C(=O)O)N4CCN(CC(=O)O)CCN(CC(=O)O)CC4)CC3)nn2)c1C.[64Cu+2] [[^64Cu]Cu-6],532 nM and 533 nM,10.3 ± 0.74 pmol·mg^–1,–4.28 ± 0.08,> 94,> 99,96.3,93.4,–,–
Cc1c(COc2cc(OCc3cncc(S(C)(=O)=O)c3)c(CN[C@@H](CS(=O)(=O)O)C(=O)NCCS(=O)(=O)O)cc2Cl)cccc1-c1cccc(OCc2cn(CCCN3CCN(C(=O)[C@H](CS(=O)(=O)O)NC(=O)CC[C@H](C(=O)O)N4CCN(CC(=O)O)CCN(CC(=O)O)CC4)CC3)nn2)c1C.[64Cu+2] [[^64Cu]Cu-3],93.7 ± 10.8 nM,8.51 ± 0.48 pmol·mg^–1,–,–,> 99,94.1,–,overall stability of the compound in circulation,–
Cc1c(COc2cc(OCc3cncc(S(C)(=O)=O)c3)c(CN[C@@H](CS(=O)(=O)O)C(=O)NCCP(=O)(O)O)cc2Cl)cccc1-c1cccc(OCc2cn(CCCN3CCN(C(=O)CC[C@H](C(=O)O)N4CCN(CC(=O)O)CCN(CC(=O)O)CC4)CC3)nn2)c1C.[64Cu+2] [[^64Cu]Cu-4],82.4 ± 7.42 nM,10.7 pmol·mg^–1 and 10.7 ± 1.34 pmol·mg^–1,–3.07 ± 0.02,–,> 99,98.3,–,–,112
Cc1c(COc2cc(OCc3cncc(S(C)(=O)=O)c3)c(CN[C@@H](CS(=O)(=O)O)C(=O)NCCP(=O)(O)O)cc2Cl)cccc1-c1cccc(OCc2cn(CCCN3CCN(C(=O)[C@H](CS(=O)(=O)O)NC(=O)CC[C@H](C(=O)O)N4CCN(CC(=O)O)CCN(CC(=O)O)CC4)CC3)nn2)c1C.[64Cu+2] [[^64Cu]Cu-5],112 ± 11 nM,19.1 pmol·mg^–1 and 19.1 ± 0.67 pmol·mg^–1,–,–,> 99,94.0,–,–,82.4
Cc1c(COc2cc(OCc3cncc(C#N)c3)c(CN[C@@H](CS(=O)(=O)O)C(=O)NCCS(=O)(=O)O)cc2Cl)cccc1-c1cccc(OCc2cn(CCCN3CCN(C(=O)[C@H](CS(=O)(=O)O)NC(=O)CC[C@H](C(=O)O)N4CCN(CC(=O)O)CCN(CC(=O)O)CC4)CC3)nn2)c1C.[64Cu+2] [[^64Cu]Cu-1],80.5 ± 5.02 nM,7.05 pmol·mg^–1 and 7.05 ± 0.99 pmol·mg^–1,–,–,–,–,–,–,–

# — paper PMC10726354, “Design, Synthesis, and Biological Evaluation of Small-Molecule-Based Radioligands with Improved Pharmacokinetic Properties for Imaging of Programmed Death Ligand 1” (Journal of Medicinal Chemistry, 2023)
